Laboratory results: patent US20240108591A1, “OR2L13 AGONISTS TO TREAT CVD WITH DY[…] ACTIVATION” (The Cleveland Clinic Foundation, priority 2022, published 2024)

Legend:
MMP2 [1] = test: Platelet lysate MMP2 activity by zymography in AAA model; conditions: isolated platelets from treated wild-type mice, week 4 following AAA
MMP2 [2] = test: Aortic lysate MMP activity by zymography in AAA model; assay type: in vivo, mouse; conditions: daily 100 mg/Kg i.p., aortic lysate at week 4 following AAA
Source text: We previously reported that platelet matrix metalloproteinase (MMP) activity is increased in myocardial infarction (7, 27). Given that patients with AAA show less aortic growth and rupture when taking aspirin and growth and rupture are linked to MMP activity (10), we hypothesized that circulating platelets in patients with AAA may synthesize and secrete MMPs. Platelet MMP9 activity was enhanced and the MMP9 Tissue Inhibitor of MMP9 (TIMP1) was reduced in AAA compared to healthy conditions (FIG. 9A). Platelet MMP9 content was unchanged in healthy compared with AAA platelets. Aortic tissue as well as luminal thrombus from patients with infrarenal AAA compared to non-aneurysmal cadaveric aorta had increased expression and activity of MMP9.

healthy platelets [3] = test: Platelet chloride efflux (MQAE fluorescence); assay type: cell-based, human; conditions: 300 μM, n=4
Source text: (§1) FIG. 5. A conserved olfactory receptor signal transduction pathway in healthy platelets. A. Proposed platelet OR2L13 signal transduction. Levo-carvone (L-Carvone) binds to OR2L13 on platelets to generate cAMP through adenylyl cyclase activation, and cAMP changes the cytosolic concentration of calcium (Ca 2+) directly and chloride conductance (C1^−) while inhibiting platelet reactivity through known, well-described mechanisms involving protein kinase (PKA). […] C. […] Data are mean±SEM (n=4, MQAE fluorescence). *P=0.0134 (−) carvone vs control by student's t-test. D. Carvone stimulation (300 μM) of healthy platelets promotes local brief calcium transients 20-80% above baseline is sustained compared with thrombin which attenuates over time (n=5 human platelets, Fura-2 fluorescence). MQAE=-[ethoxycarbonylmethyl]-6-methoxy-quinoliniumbromide. Arrowhead=drug addition.
(§2) ORs and downstream anoctamin proteins are generally expressed in afferent olfactory neurons (23). ORs are GPCRs positively linked to AC to increase cAMP (24), triggering […] as a downstream calcium-sensitive chloride channel (25). If this signal transduction pathway is conserved in platelets, OR2L13 activation should generate cAMP in platelets coincident with changes in platelet Cl^−- and Ca^2+ flux (schematic, FIG. 5A). […]

human platelets = test: cAMP generation in human platelets; assay type: cell-based; conditions: 300 μM, 5 minutes, n=7
Source text: as §1, §2

FVB/tac mice [4] = test: Tail bleeding time (time to hemostasis after tail tip amputation); assay type: in vivo, mouse; conditions: 100 mg/Kg/day i.p. for three days
Procedure: (§3) FIG. 7. Biomechanical platelet activation is inhibited by OR2L13 agonists. A. In vitro exposure of healthy platelets to steady laminar flow (S-flow) or disturbed flow (D-flow) for 60 mins after 30 minute pre-treatment with vehicle or (−) Carvone (300 μM). Platelet activation quantified by surface p-selectin expression as mean fluorescence intensity (MFI)±SEM, n=3 in each group by 2-way ANOVA. B. Calcein green-loaded healthy human blood flowing through a collagen-I coated microfluidics chamber at 40 dyn/cm^2 and imaged by confocal microscopy for adherent thrombus (green puncta) at three minutes. Data are represented as mean thrombus area of random fields±SEM, n=6-7 in each group following 30 minutes of vehicle (0.25% DMSO) or (−) carvone treatment (300 μM). Differences between groups was assessed by the student's t-test, * P<0.0001 vs. vehicle. C. WT Fvb/tac mice were given 100 mg/Kg/day (−) carvone IP for 3 days. Platelets were isolated and stimulated in the presence of thrombin. […] D. Time to hemostasis in mice treated with (−) carvone following surgical amputation of tail tip in seconds±SEM, n=6-9 in each group, *P=0.0046 vs. vehicle by Mann Whitney U.
(§4) To ascertain whether exogenous (−) carvone in mice impacted platelet reactivity and thrombosis in vivo, FVB/tac mice were administered (−) carvone at a dose of 100 mg/Kg/day for three days by i.p. injection. […]

healthy human blood = test: Thrombus formation in collagen-I coated microfluidics chamber at high shear; assay type: cell-based; conditions: 300 μM, 30 minutes, 40 dyn/cm^2, three minutes
Procedure: (§5) FIG. 7. Biomechanical platelet activation is inhibited by OR2L13 agonists. A. In vitro exposure of healthy platelets to steady laminar flow (S-flow) or disturbed flow (D-flow) for 60 mins after 30 minute pre-treatment with vehicle or (−) Carvone (300 μM). Platelet activation quantified by surface p-selectin expression as mean fluorescence intensity (MFI)±SEM, n=3 in each group by 2-way ANOVA. B. Calcein green-loaded healthy human blood flowing through a collagen-I coated microfluidics chamber at 40 dyn/cm^2 and imaged by confocal microscopy for adherent thrombus (green puncta) at three minutes. […] Differences between groups was assessed by the student's t-test, * P<0.0001 vs. vehicle. […]
(§6) Healthy human blood loaded with the fluorophore calcein green at room temperature (10 μM, pH 7.4 for 20 minutes), and incubated with odorant ligands for 30 minutes. […] D-flow shear cannot be accurately determined, though the same rotational speed was used with S-flow and D-flow always run alongside no flow (static) conditions for internal consistency. Following exposure to S-flow or D-flow, platelets were imaged by confocal microscopy, surface marker proteins were determined quantitatively by flow cytometry, and platelet proteins were assessed by Western blotting.
(§7) We next evaluated biomechanical platelet activation by S-flow and D-flow. […]

FVB/tac mice [5] = test: Murine AAA model (topical elastase, BAPN, anti-TGFβ), aortic diameter by ultrasound
Procedure: To augment aneurysm growth and induce ILT as described (26), anti—TGFβ blocking antibody (250 μg/mouse) was injected i.p. three times weekly starting the day of surgery. Each mouse (20-30 g in weight) is given 1 mL subcutaneous physiologic saline before surgical incision to account for insensible volume losses with gut externalization. Surgical procedures were conducted on a surgical heating pad at 37 ° C. Mice were anesthetized with isoflurane anesthesia (3% by nosecone) using oxygen as the carrier. Buprenorphine (0.05 mg/Kg) is given 30 minutes prior to skin incision. The area of incision is cleaned with 70% ethanol and betadine three times, and then infiltrated gently with local anesthesia (bupivacaine 5 mg/Kg SQ immediately prior to incision). A midline abdominal incision is made through the skin. The rectus sheath was divided at the Linea Alba. The intestines are exteriorized with a Qtip to the left of mouse onto gauze soaked with saline above and below to prevent drying. Whatman paper 6 mm×9 mm slices were placed on top of aorta below the bifurcation of the renal arteries. […] Hyperalgesia was assessed immediately after the procedure, and then twice daily for 48 hrs, and maintenance dose buprenorphine (0.05 mg/Kg) was given 8 hrs post-surgery, and then maintained at this dose for 48 hrs post-surgery. […]

[6] = test system: platelets from FVB/tac mice; test: Ex vivo thrombin-stimulated platelet activation after in vivo dosing; parameters: species or system mouse; conditions: 100 mg/Kg/day i.p. for three days
Procedure: as §3, §4

[7] = test system: platelets from healthy humans; test: Light transmission aggregometry, ADP-induced platelet aggregation; assay type: cell-based, human; conditions: 30 minutes preincubation, ADP 0.1 μM
Procedure: FIG. 6. […] A. Platelets were isolated from healthy humans and preincubated with (−) carvone or (+) carvone (300 μM) for 30 minutes. Platelets were stimulated with ADP (0.1 μM) and light transmission aggregometry assessed platelet activation. Representative tracings for each agonist are shown. B. Carvone (300 μM) or forskolin (10 μM) incubation individually or together for 30 minutes followed by platelet stimulation with ADP (0.1 μM). Light transmission aggregometry assessed platelet activation. Representative aggregometry tracings are shown. V=vehicle, C=(−)carvone, F=forskolin. Differences between groups by one-way ANOVA followed by Bonferroni correction *P<0.0001, **P=0.0003, ***P<0.0001 vs. vehicle (n=3). C. […] D. Platelets isolated from healthy humans and preincubated with (−) carvone (0-500 μM) for 30 minutes then stimulated with ADP (0.1 μM). Light transmission aggregometry assessed platelet activation. Representative tracings for each agonist are shown. E. Summary data for each concentration of (−) carvone as mean±SEM by ANOVA in the presence of ADP stimulation (0.1 μM). The downward red arrow is ADP in the presence of vehicle to which all data points were compared. *P<0.05 vs. vehicle, n=3 in each group by ANOVA, followed by Bonferroni correction. The broken blue line indicates the log IC50 concentration of (−) carvone. […]

healthy platelets [8] = test: Flow cone and plate exposure to S-flow or D-flow, surface p-selectin by FACS; assay type: cell-based, human; conditions: 300 μM, 30 minute pre-treatment, 60 mins flow
Procedure: as §5, §6, §7

patients with small AAA = conditions: randomized clinical trial (ref 14); cited from earlier work
[9] = Circulating platelet number in treated mice; assay type: in vivo, mouse; conditions: 100 mg/Kg/day i.p. for three days, FVB/tac mice
Procedure: To ascertain whether exogenous (−) carvone in mice impacted platelet reactivity and thrombosis in vivo, FVB/tac mice were administered (−) carvone at a dose of 100 mg/Kg/day for three days by i.p. injection. Platelets were then isolated from mice and thrombin-stimulated ex vivo. Thrombin-induced platelet degranulation ex vivo was inhibited in platelets from (−) carvone-treated mice (FIG. 7C). […] This effect is consistent with adequate absorption and distribution of (−) carvone to attenuate platelet activation and thrombosis in vivo.

healthy platelets [10] = test: Platelet calcium transients (Fura-2 fluorescence); assay type: cell-based, human; conditions: 300 μM, n=5
Source text: as §1, §2

[11] = test system: clinical population with AAA; conditions: large clinical population (ref 10); cited from earlier work

C=C(C)C1CC=C(C)C(=O)C1 (single isomer, unassigned; (-)) [(−) carvone]
platelet MMP2 activity compared to control mice (MMP2 [1]): decreased | MMP2 activity in the aorta (MMP2 [2]): decreased MMP2 activity in the aorta | chloride efflux (healthy platelets [3]): promotes chloride efflux | cAMP generation in platelets (human platelets): generates cAMP | tail bleeding times (FVB/tac mice [4]): prolonged | thrombosis in whole blood (thrombus area) (healthy human blood): attenuated | AAA growth (aortic diameter by ultrasound) (FVB/tac mice [5]; 100 mg/Kg/day i.p. starting at day 7, fvb/tac mice): attenuated AAA growth | thrombin-induced platelet degranulation ex vivo [6]: inhibited | ADP-induced platelet aggregation ([7]; 0-500 μM): blunted ADP-induced platelet aggregation dose-dependently | anti-platelet effect, (−) versus (+) enantiomer ([7]; 300 μM): more potent anti-platelet effect | S-flow / D-flow induced platelet activation (surface p-selectin) (healthy platelets [8]): attenuated only D-flow induced platelet activation

CCCSc1nc(N[C@@H]2C[C@H]2c2ccc(F)c(F)c2)c2nnn([C@@H]3C[C@H](OCCO)[C@@H](O)[C@H]3O)c2n1 [ticagrelor]
AAA growth in patients (patients with small AAA): did not alter AAA growth

C=C(C)[C@@H]1CC=C(C)C(=O)C1 (single isomer, unassigned) [(−) carvone]
circulating platelet number [9]: without affecting the circulating platelet number | local brief calcium transients above baseline (healthy platelets [10]): 20-80%

CC(=O)Oc1ccccc1C(=O)O [aspirin, reference compound]
AAA growth in patients [11]: limits AAA growth | AAA growth (aortic diameter by ultrasound) (FVB/tac mice [5]; 30 mg/L in drinking water starting at day 7, fvb/tac mice): attenuated AAA growth similarly to aspirin
